According to US11292796B2 (SIGNAL PHARMACEUTICALS, LLC, priority 2008, dated 2022):

Target: T1, mTOR (Homo sapiens, UniProt P42345)
T1 construct: purchased Invitrogen PR8683A
Assay: mTOR HTR-FRET assay
Type: biochemical
Conditions: read-out: Act. Level (IC50 in mTor HTR-FRET assay)
Outline: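 Test compounds, taken from 10 mM DMSO stocks and diluted, were mixed with mTOR enzyme (0.200 μg/mL) in Tris buffer pH 7.4 with 100 mM NaCl, 0.1% Tween-20 and 1 mM DTT. ATP/substrate addition initiated the reaction, alongside compound-free controls.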

T1 sequence (P42345 1360-2549 limits assumed): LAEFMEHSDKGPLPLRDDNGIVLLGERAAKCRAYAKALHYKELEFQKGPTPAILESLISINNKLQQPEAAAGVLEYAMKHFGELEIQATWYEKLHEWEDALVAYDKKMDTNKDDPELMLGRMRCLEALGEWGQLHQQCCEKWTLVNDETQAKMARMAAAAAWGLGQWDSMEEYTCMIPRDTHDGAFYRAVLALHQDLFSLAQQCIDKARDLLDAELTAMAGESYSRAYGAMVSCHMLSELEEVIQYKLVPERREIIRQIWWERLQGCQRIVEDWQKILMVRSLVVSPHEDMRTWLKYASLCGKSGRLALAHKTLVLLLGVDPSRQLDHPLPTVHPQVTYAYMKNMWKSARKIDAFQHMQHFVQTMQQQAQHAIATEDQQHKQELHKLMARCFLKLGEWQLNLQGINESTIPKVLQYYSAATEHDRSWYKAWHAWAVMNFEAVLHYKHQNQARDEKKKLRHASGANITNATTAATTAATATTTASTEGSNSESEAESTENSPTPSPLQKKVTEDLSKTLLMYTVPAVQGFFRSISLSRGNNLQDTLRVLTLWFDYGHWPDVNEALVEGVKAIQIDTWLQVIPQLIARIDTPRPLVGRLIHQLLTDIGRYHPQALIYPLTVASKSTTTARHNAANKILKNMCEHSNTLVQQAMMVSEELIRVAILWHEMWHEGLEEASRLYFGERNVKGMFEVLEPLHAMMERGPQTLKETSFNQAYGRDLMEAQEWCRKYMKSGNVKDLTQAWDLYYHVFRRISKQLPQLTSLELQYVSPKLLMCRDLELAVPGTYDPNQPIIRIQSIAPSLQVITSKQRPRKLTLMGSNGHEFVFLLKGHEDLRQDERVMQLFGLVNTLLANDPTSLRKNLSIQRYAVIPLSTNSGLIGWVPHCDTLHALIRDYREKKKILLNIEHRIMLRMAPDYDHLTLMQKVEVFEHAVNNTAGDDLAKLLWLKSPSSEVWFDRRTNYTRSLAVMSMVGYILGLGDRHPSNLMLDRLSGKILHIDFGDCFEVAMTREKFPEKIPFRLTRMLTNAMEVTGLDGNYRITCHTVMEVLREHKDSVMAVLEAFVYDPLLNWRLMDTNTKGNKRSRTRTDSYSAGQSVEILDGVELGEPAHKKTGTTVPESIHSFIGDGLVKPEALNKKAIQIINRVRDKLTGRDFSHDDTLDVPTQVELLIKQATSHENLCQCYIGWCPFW

Structure (SMILES) | IC50 [nM]
O=C1CNc2ncc(-c3ccc4[nH]ncc4c3)nc2N1CCC1CCOCC1 [Example 223, 7-(1H-indazol-5-yl)-1-(2-(tetrahydro-2H-pyran-4-yl)ethyl)-3,4-dihydropyrazino[2,3-b]pyrazin-2(1H)-one] | 500 to 1000
Nc1ncc(-c2cnc3c(n2)N(CCC2CCOCC2)C(=O)CN3)cn1 [Example 182, 7-(2-aminopyrimidin-5-yl)-1-(2-(tetrahydro-2H-pyran-4-yl)ethyl)-3,4-dihydropyrazino[2,3-b]pyrazin-2(1H)-one] | 250 to 500
CCN1CC(=O)Nc2ncc(-c3ccc(-c4nc[nH]n4)nc3)nc21 [Example 22, 6-(6-(1H-1,2,4-triazol-3-yl)pyridin-3-yl)-4-ethyl-3,4-dihydropyrazino[2,3-b]pyrazin-2(1H)-one] | 0.005 to 250
CO[C@@H]1CC[C@@H](N2C(=O)CNc3ncc(-c4ccc(C(C)(C)O)nc4)nc32)C1 [Example 208, 7-(6-(2-hydroxypropan-2-yl)pyridin-3-yl)-1-((1R,3R)-3-methoxycyclopentyl)-3,4-dihydropyrazino[2,3-b]pyrazin-2(1H)-one] | 0.005 to 250
O=C1CN(Cc2cccc(C(F)(F)F)c2)c2nc(-c3ccc(-c4nnc[nH]4)cc3)cnc2N1 [Example 145, 6-(4-(4H-1,2,4-triazol-3-yl)phenyl)-4-(3-(trifluoromethyl)benzyl)-3,4-dihydropyrazino[2,3-b]pyrazin-2(1H)-one] | 0.005 to 250
Cc1cc(-c2nc[nH]n2)c(F)cc1-c1cnc2c(n1)N(C[C@H]1CC[C@@H](O)CC1)C(=O)CN2 [Example 165, 7-(5-fluoro-2-methyl-4-(1H-1,2,4-triazol-3-yl)phenyl)-1-((cis-4-hydroxycyclohexyl)methyl)-3,4-dihydropyrazino[2,3-b]pyrazin-2(1H)-one] | 0.005 to 250
O=C1CNc2ncc(-c3ccc4cc[nH]c4c3)nc2N1CCC1CCOCC1 [Example 232, 7-(1H-indol-6-yl)-1-(2-(tetrahydro-2H-pyran-4-yl)ethyl)-3,4-dihydropyrazino[2,3-b]pyrazin-2(1H)-one] | 250 to 500
CC(C)(O)c1ccc(-c2cnc3c(n2)N([C@@H]2CCOC2)CC(=O)N3)cn1 [Example 129, (R)-6-(6-(2-hydroxypropan-2-yl)pyridin-3-yl)-4-(tetrahydrofuran-3-yl)-3,4-dihydropyrazino[2,3-b]pyrazin-2(1H)-one] | 500 to 1000
Cc1cc(-c2nc[nH]n2)c(F)cc1-c1cnc2c(n1)N([C@H]1CC[C@@H](O)CC1)C(=O)CN2 [Example 161, 7-(5-fluoro-2-methyl-4-(1H-1,2,4-triazol-3-yl)phenyl)-1-(cis-4-hydroxycyclohexyl)-3,4-dihydropyrazino[2,3-b]pyrazin-2(1H)-one] | 0.005 to 250
Cc1cc(-c2nnc[nH]2)ncc1-c1cnc2c(n1)N(CC1CCOCC1)C(C)(C)C(=O)N2 [Example 50, 3,3-dimethyl-6-(4-methyl-6-(4H-1,2,4-triazol-3-yl)pyridin-3-yl)-4-((tetrahydro-2H-pyran-4-yl)methyl)-3,4-dihydropyrazino[2,3-b]pyrazin-2(1H)-one] | 0.005 to 250
CC(C)CN1CC(=O)Nc2ncc(-c3ccc(C(C)(C)O)nc3)nc21 [Example 106, 6-(6-(2-hydroxypropan-2-yl)pyridin-3-yl)-4-isobutyl-3,4-dihydropyrazino[2,3-b]pyrazin-2(1H)-one] | 500 to 1000
Cc1cc(-c2nc[nH]n2)c(F)cc1-c1cnc2c(n1)N(C[C@H]1CC[C@H](O)CC1)C(=O)CN2 [Example 168, 7-(5-fluoro-2-methyl-4-(1H-1,2,4-triazol-3-yl)phenyl)-1-((trans-4-hydroxycyclohexyl)methyl)-3,4-dihydropyrazino[2,3-b]pyrazin-2(1H)-one] | 0.005 to 250
CC(C)(O)c1ccc(-c2cnc3c(n2)N(CCc2ccccc2)CC(=O)N3)cn1 [Example 124, 6-(6-(2-hydroxypropan-2-yl)pyridin-3-yl)-4-phenethyl-3,4-dihydropyrazino[2,3-b]pyrazin-2(1H)-one] | 250 to 500
CO[C@H]1CC[C@H](N2C(=O)CNc3ncc(-c4cc(F)c(-c5nc[nH]n5)cc4C)nc32)CC1 [Example 173, 7-(5-fluoro-2-methyl-4-(1H-1,2,4-triazol-3-yl)phenyl)-1-(trans-4-methoxycyclohexyl)-3,4-dihydropyrazino[2,3-b]pyrazin-2(1H)-one] | 0.005 to 250
Cc1cc(-c2nnc[nH]2)ccc1-c1cnc2c(n1)N1CCN(C)CC1C(=O)N2 (stereo not drawn) [Example 118, 9-(4-(4H-1,2,4-triazol-3-yl)-2-methylphenyl)-3-methyl-6,11,4a-trihydropiperazino[1,2-e]pyrazino[2,3-b]pyrazin-5-one] | 500 to 1000
Cc1cc(C(C)(C)O)ncc1-c1cnc2c(n1)N(CC1CCOCC1)CC(=O)N2 [Example 78, 6-(6-(2-hydroxypropan-2-yl)-4-methylpyridin-3-yl)-4-((tetrahydro-2H-pyran-4-yl)methyl)-3,4-dihydropyrazino[2,3-b]pyrazin-2(1H)-one] | 0.005 to 250
CO[C@H]1C[C@@H]2C(=O)Nc3ncc(-c4ccc(-c5nnc[nH]5)cc4C)nc3N2C1 [Example 112, 8-(4-(4H-1,2,4-triazol-3-yl)-2-methylphenyl)(2S,3aR)-2-methoxy-5,10,3a-trihydropyrazino[2,3-b]pyrrolidino[1,2-e]pyrazin-4-one] | 0.005 to 250

Structure (SMILES) | IC50 [nM]
CNc1ccc(-c2cnc3c(n2)N(CCC2CCOCC2)C(=O)CN3)cn1 [Example 184, 7-(6-(methylamino)pyridin-3-yl)-1-(2-(tetrahydro-2H-pyran-4-yl)ethyl)-3,4-dihydropyrazino[2,3-b]pyrazin-2(1H)-one] | 0.005 to 250
Cc1cc(C(N)=O)ncc1-c1cnc2c(n1)N(CC1CCOCC1)C(=O)CN2 [Example 199, 4-methyl-5-(7-oxo-8-((tetrahydro-2H-pyran-4-yl)methyl)-5,6,7,8-tetrahydropyrazino[2,3-b]pyrazin-2-yl)picolinamide] | 1000 to 10000
C[C@H](O)c1ccc(-c2cnc3c(n2)N(CCC2CCOCC2)CC(=O)N3)cn1 [Example 83, (S)-6-(6-(1-hydroxyethyl)pyridin-3-yl)-4-(2-(tetrahydro-2H-pyran-4-yl)ethyl)-3,4-dihydropyrazino[2,3-b]pyrazin-2(1H)-one] | 250 to 500
CO[C@H]1CC[C@@H](CN2C(=O)CNc3ncc(-c4cc(F)c(-c5nc[nH]n5)cc4C)nc32)CC1 [Example 153, 7-(5-fluoro-2-methyl-4-(1H-1,2,4-triazol-3-yl)phenyl)-1-((cis-4-methoxycyclohexyl)methyl)-3,4-dihydropyrazino[2,3-b]pyrazin-2(1H)-one] | 0.005 to 250
CO[C@@H]1CC[C@@H](N2C(=O)CNc3ncc(-c4ccc(-c5nnc[nH]5)nc4C)nc32)C1 [Example 227, 1-((1R,3R)-3-methoxycyclopentyl)-7-(2-methyl-6-(4H-1,2,4-triazol-3-yl)pyridin-3-yl)-3,4-dihydropyrazino[2,3-b]pyrazin-2(1H)-one] | 0.005 to 250
COCCCN1C(=O)CNc2ncc(-c3ccc(C(C)(C)O)nc3)nc21 [Example 259, 7-(6-(2-hydroxypropan-2-yl)pyridin-3-yl)-1-(3-methoxypropyl)-3,4-dihydropyrazino[2,3-b]pyrazin-2(1H)-one] | 0.005 to 250
Cc1cc(-c2nc[nH]n2)ncc1-c1cnc2c(n1)N(CCC1CCOCC1)C(=O)CN2 [Example 260, 7-(4-methyl-6-(1H-1,2,4-triazol-3-yl)pyridin-3-yl)-1-(2-(tetrahydro-2H-pyran-4-yl)ethyl)-3,4-dihydropyrazino[2,3-b]pyrazin-2(1H)-one] | 0.005 to 250
Cc1cc(C(N)=O)ncc1-c1cnc2c(n1)N(C(C)C)C(=O)CN2 [Example 180, 5-(8-isopropyl-7-oxo-5,6,7,8-tetrahydropyrazino[2,3-b]pyrazin-2-yl)-4-methylpicolinamide] | 0.005 to 250
Cc1cc(-c2nnc[nH]2)ccc1-c1cnc2c(n1)N(Cc1ccccc1)C(=O)CN2 [Example 241, 1-benzyl-7-(2-methyl-4-(4H-1,2,4-triazol-3-yl)phenyl)-3,4-dihydropyrazino[2,3-b]pyrazin-2(1H)-one] | 0.005 to 250
Cc1cc(-c2nnc[nH]2)ccc1-c1cnc2c(n1)NC(C)(C)C(=O)N2 [Example 79, 3,3-dimethyl-6-(2-methyl-4-(4H-1,2,4-triazol-3-yl)phenyl)-3,4-dihydropyrazino[2,3-b]pyrazin-2(1H)-one] | 250 to 500
COCCN1C(=O)CNc2ncc(-c3cnc4[nH]ccc4c3)nc21 [Example 192, 1-(2-methoxyethyl)-7-(1H-pyrrolo[2,3-b]pyridin-5-yl)-3,4-dihydropyrazino[2,3-b]pyrazin-2(1H)-one] | 0.005 to 250
O=C1CN(CC2CCOCC2)c2nc(-c3ccc(-c4nnc[nH]4)cc3)cnc2N1 [Example 142, 6-(4-(4H-1,2,4-triazol-3-yl)phenyl)-4-((tetrahydro-2H-pyran-4-yl)methyl)-3,4-dihydropyrazino[2,3-b]pyrazin-2(1H)-one] | 0.005 to 250
CCN1C(=O)CNc2ncc(-c3ccc(-c4nc[nH]n4)nc3)nc21 [Example 164, 7-(6-(1H-1,2,4-triazol-3-yl)pyridin-3-yl)-1-ethyl-3,4-dihydropyrazino[2,3-b]pyrazin-2(1H)-one] | 0.005 to 250
O=C1CN(C[C@@H]2CCCO2)c2nc(-c3ccc(-c4nnc[nH]4)cc3)cnc2N1 [Example 68, (S)-6-(4-(4H-1,2,4-triazol-3-yl)phenyl)-4-((tetrahydrofuran-2-yl)methyl)-3,4-dihydropyrazino[2,3-b]pyrazin-2(1H)-one] | 0.005 to 250
NC(=O)c1ccc(-c2cnc3c(n2)N(CCC2CCOCC2)CC(=O)N3)cc1 [Example 70, 4-(6-oxo-8-(2-(tetrahydro-2H-pyran-4-yl)ethyl)-5,6,7,8-tetrahydropyrazino[2,3-b]pyrazin-2-yl)benzamide] | 1000 to 10000
CC(C)(O)c1ccc(-c2cnc3c(n2)N(CCN2CCOCC2)CC(=O)N3)cn1 [Example 123, 6-(6-(2-hydroxypropan-2-yl)pyridin-3-yl)-4-(2-morpholinoethyl)-3,4-dihydropyrazino[2,3-b]pyrazin-2(1H)-one] | 1000 to 10000
